Several values for one entry are separate records, joined by “and”; a condition that tells them apart may be missing. Identical values can stand only once.
Key:
[1] = biological target: T1, ALP (Bos taurus, UniProt P19111); experiment: NIR FL, PA and absorption signals of P-CyPt in solution in response to ALP; assay type: biochemical; details: P-CyPt 10 μM, ALP 100 U/L, after 30 min
T1 construct: Alkaline phosphatase from bovine; purchased Sigma-Aldrich; host or cells: bovine intestinal mucosa (tissue-derived)
T1 sequence (P19111 20-506 limits assumed): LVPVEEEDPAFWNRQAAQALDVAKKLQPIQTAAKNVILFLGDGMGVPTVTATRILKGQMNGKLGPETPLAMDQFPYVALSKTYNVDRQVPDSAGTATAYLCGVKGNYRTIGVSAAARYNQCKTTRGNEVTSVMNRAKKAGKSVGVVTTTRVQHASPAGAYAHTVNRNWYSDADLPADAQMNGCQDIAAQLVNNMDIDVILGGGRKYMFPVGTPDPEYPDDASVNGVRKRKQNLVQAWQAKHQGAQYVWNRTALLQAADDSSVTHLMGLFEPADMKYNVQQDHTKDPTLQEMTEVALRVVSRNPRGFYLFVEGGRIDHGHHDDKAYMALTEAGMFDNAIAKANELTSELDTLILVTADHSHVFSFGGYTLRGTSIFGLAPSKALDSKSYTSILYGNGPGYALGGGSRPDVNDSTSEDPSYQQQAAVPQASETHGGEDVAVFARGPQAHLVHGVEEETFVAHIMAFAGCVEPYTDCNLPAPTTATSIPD
Experimental: (§1) To monitor the NIR FL and PA imaging signals of P-CyPt in response to ALP, P-CyPt (10 μM) in Tris buffer (1 mL) was incubated with ALP (100 U/L) at 37 °C for 0, 5, 10, 15, 20, and 30 min. To monitor the NIR FL and PA imaging signals of Pt^IVNPs in response to GSH, P-CyPt (10 μM) in Tris buffer (1 mL) was first incubated with ALP (100 U/L) at 37 °C for 30 min and then incubated with 10 mM GSH at 37 °C for another 10, 20, 30, 40, 50, and 60 min. The NIR FL spectra of these solutions at each time point were acquired on a HORIBA Jobin Yvon Fluoromax-4 fluorescence spectrometer, with excitation at 680 nm. For PA imaging, the incubation solutions at each time point were loaded into a fine bore polythene tube ([…], 1.27 mm OD). The tubes were then sealed and immersed in water. The PA images at both 700 and 750 nm were acquired on the Vevo 2100 LAZR system (FUJIFILM VisualSonics).

[2] = test system: ALP; experiment: Specificity of P-CyPt towards ALP (Trypsin, MMP-2, GGT, CTB, Caspase-3, ALP, ALP + Na3VO4); assay type: biochemical; details: for Normalized FL intensity at 710 nm, single replicate: individual replicates; for Normalized FL intensity at 710 nm, single replicate / Normalized FL intensity at 710 nm, mean: Supplementary Fig. 7b
[3] = NIR FL, PA and absorption signals of Pt^IVNPs in solution in response to GSH; details: P-CyPt 10 μM
Experimental: as §1

[4] = ALP 30 min then GSH 10 mM 10 min (time 40)
[5] = ALP 30 min then GSH 10 mM 20 min (time 50)
[6] = ALP 30 min then GSH 10 mM 30 min (time 60)
[7] = ALP 30 min then GSH 10 mM 40 min (time 70)
[8] = ALP 30 min then GSH 10 mM 50 min (time 80)
[9] = ALP 30 min then GSH 10 mM 60 min (time 90)

## CC1(C)C(/C=C/C2=C3Oc4cc(OP(=O)(O)O)c(Cl)cc4C=C3CCC2)=[N+](CCCNC(=O)[C@@H](Cc2ccccc2)NC(=O)[C@@H](Cc2ccccc2)NC(=O)CCC(=O)[O][Pt]([NH2])([NH2])([OH])([Cl])[Cl])c2ccccc21 [P-CyPt]
[1]
  increase of PA signal at 700 nm: more than sixfold
  increase of PA signal at 750 nm: more than sixfold
[2]; Enzyme type: ALP+Na3VO4
  Normalized FL intensity at 710 nm, single replicate: 1.0416 and 1.0656 and 1.1392
[2]; Enzyme type: ALP+Na3VO4, mean of 3 replicates
  Normalized FL intensity at 710 nm, mean: 1.082
[2]; Enzyme type: ALP+PBS
  Normalized FL intensity at 710 nm, single replicate: 1.0305 and 1.3734 and 1.3861
[2]; Enzyme type: ALP+PBS, mean of 3 replicates
  Normalized FL intensity at 710 nm, mean: 1.263
[2]; Enzyme type: ALP
  Normalized FL intensity at 710 nm, single replicate: 7.7619 and 9.0065 and 9.1858
[2]; Enzyme type: ALP, mean of 3 replicates
  Normalized FL intensity at 710 nm, mean: 8.651
[2]; Enzyme type: CTB
  Normalized FL intensity at 710 nm, single replicate: 0.9991 and 1.017 and 1.1059
[2]; Enzyme type: CTB, mean of 3 replicates
  Normalized FL intensity at 710 nm, mean: 1.041
[2]; Enzyme type: GGT
  Normalized FL intensity at 710 nm, single replicate: 0.8869 and 1.0719 and 1.0726
[2]; Enzyme type: GGT, mean of 3 replicates
  Normalized FL intensity at 710 nm, mean: 1.010
[2]; Enzyme type: MMP-2
  Normalized FL intensity at 710 nm, single replicate: 0.9603 and 0.9824 and 1.1444
[2]; Enzyme type: MMP-2, mean of 3 replicates
  Normalized FL intensity at 710 nm, mean: 1.029
[2]; Enzyme type: Tris (buffer only)
  Normalized FL intensity at 710 nm, single replicate: 0.9358 and 0.9007 and 1.1635
[2]; Enzyme type: Tris (buffer only), mean of 3 replicates
  Normalized FL intensity at 710 nm, mean: 1.000
[2]; Enzyme type: Trypsin
  Normalized FL intensity at 710 nm, single replicate: 0.935 and 0.9815 and 1.0282
[2]; Enzyme type: Trypsin, mean of 3 replicates
  Normalized FL intensity at 710 nm, mean: 0.982
[2]; enzyme: Casepase-3, individual replicate values (n=3)
  NIR fluorescence signal of P-CyPt after incubation with enzyme (Supplementary Fig. 7, enzyme types), individual replicates: 1.0789 and 1.0855 and 1.1465
[2]; enzyme: Casepase-3, mean of 3 replicates
  NIR fluorescence signal of P-CyPt after incubation with enzyme (Supplementary Fig. 7, enzyme types), mean: 1.104
[3]; [4]
  normalized Abs. at 700 nm (Fig. 2j): 1.037
  normalized Abs. at 750 nm (Fig. 2j): 0.6059
  normalized FL intensity at 710 nm (Fig. 2k): 15.4414
  normalized PA intensity at 700 nm (Fig. 2l): 0.9827
  normalized PA intensity at 750 nm (Fig. 2l): 0.8167
[3]; [5]
  normalized Abs. at 700 nm (Fig. 2j): 1.054
  normalized Abs. at 750 nm (Fig. 2j): 0.4238
  normalized FL intensity at 710 nm (Fig. 2k): 19.7308
  normalized PA intensity at 700 nm (Fig. 2l): 0.9792
  normalized PA intensity at 750 nm (Fig. 2l): 0.6967
[3]; [6]
  normalized Abs. at 700 nm (Fig. 2j): 1.062
  normalized Abs. at 750 nm (Fig. 2j): 0.3077
  normalized FL intensity at 710 nm (Fig. 2k): 25.1768
  normalized PA intensity at 700 nm (Fig. 2l): 0.9821
  normalized PA intensity at 750 nm (Fig. 2l): 0.5167
[3]; [7]
  normalized Abs. at 700 nm (Fig. 2j): 1.0719
  normalized Abs. at 750 nm (Fig. 2j): 0.2002
  normalized FL intensity at 710 nm (Fig. 2k): 29.4155
  normalized PA intensity at 700 nm (Fig. 2l): 0.9744
  normalized PA intensity at 750 nm (Fig. 2l): 0.3617
[3]; [8]
  normalized Abs. at 700 nm (Fig. 2j): 1.0764
  normalized Abs. at 750 nm (Fig. 2j): 0.1155
  normalized FL intensity at 710 nm (Fig. 2k): 34.4707
  normalized PA intensity at 700 nm (Fig. 2l): 0.9821
  normalized PA intensity at 750 nm (Fig. 2l): 0.2567
[3]; [9]
  normalized Abs. at 700 nm (Fig. 2j): 1.084
  normalized Abs. at 750 nm (Fig. 2j): 0.09482
  normalized FL intensity at 710 nm (Fig. 2k): 35.3761
  normalized PA intensity at 700 nm (Fig. 2l): 1.001
  normalized PA intensity at 750 nm (Fig. 2l): 0.1807

— paper PMC9925730, “Controlled sequential in situ self-assembly and disassembly of a fluorogenic cisplatin prodrug for cancer theranostics” (Nature Communications, 2023)
